Source: PubChem BioAssay AID330 (DTP/NCI, 2004)
Several values for one entry are separate records, joined by “and”; a condition that tells them apart may be missing. Equal values may be shown once. Inconclusive results and toxic doses are left out. How the source made its calls: active means survival T/C of 150% or more; inactive means T/C below 125% in these data.

Tested on: P388 leukemia ip, CD2F1 mice, survival T/C
Assay: NCI In Vivo Anticancer Drug Screen. Data for tumor model P388 Leukemia (intraperitoneal) in CD2F1 (CDF1) mice
Settings: endpoint: median survival time, higher = longer survival
Summary of the method: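 Mice carrying the transplanted tumor received test compound or vehicle. Survival was recorded in each group, and the value is the treated-group measurement divided by that of the vehicle-treated control group.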

[1] = dose: 25.0 mg/kg/injection, schedule: Q01DX005 (ip), vehicle: saline with Tween-80
[2] = dose: 50.0 mg/kg/injection, schedule: Q01DX005 (ip), vehicle: saline with Tween-80
[3] = dose: 100.0 mg/kg/injection, schedule: Q01DX005 (ip), vehicle: saline with Tween-80
[4] = dose: 200.0 mg/kg/injection, schedule: Q01DX005 (ip), vehicle: saline with Tween-80
[5] = dose: 50.0 mg/kg/injection, schedule: Q01DX005 (ip), vehicle: Klucel (hydroxypropylcellulose) (HPC)
[6] = dose: 100.0 mg/kg/injection, schedule: Q01DX005 (ip), vehicle: Klucel (hydroxypropylcellulose) (HPC)
[7] = dose: 200.0 mg/kg/injection, schedule: Q01DX005 (ip), vehicle: Klucel (hydroxypropylcellulose) (HPC)
[8] = dose: 50.0 mg/kg/injection, schedule: Q01DX009 (ip), vehicle: saline
[9] = dose: 100.0 mg/kg/injection, schedule: Q01DX009 (ip), vehicle: saline
[10] = dose: 60.0 mg/kg/injection, schedule: Q01DX005 (ip), vehicle: saline with Tween-80
[11] = dose: 120.0 mg/kg/injection, schedule: Q01DX005 (ip), vehicle: saline with Tween-80
[12] = dose: 240.0 mg/kg/injection, schedule: Q01DX005 (ip), vehicle: saline with Tween-80
[13] = dose: 50.0 mg/kg/injection, schedule: Q01DX009 (ip), vehicle: Klucel (hydroxypropylcellulose) (HPC)
[14] = dose: 100.0 mg/kg/injection, schedule: Q01DX009 (ip), vehicle: Klucel (hydroxypropylcellulose) (HPC)
[15] = dose: 200.0 mg/kg/injection, schedule: Q01DX009 (ip), vehicle: Klucel (hydroxypropylcellulose) (HPC)
[16] = dose: 25.0 mg/kg/injection, schedule: Q01DX009 (ip), vehicle: saline with Tween-80
[17] = dose: 50.0 mg/kg/injection, schedule: Q01DX009 (ip), vehicle: saline with Tween-80

Measured: T/C

O=Cc1cc2c(Cl)nccc2o1
inactive: dose: 60.0 mg/kg/injection, schedule: Q01DX005 (ip), vehicle: Klucel (hydroxypropylcellulose) (HPC) 105 % of control | dose: 120.0 mg/kg/injection, schedule: Q01DX005 (ip), vehicle: Klucel (hydroxypropylcellulose) (HPC) 102 % of control | dose: 240.0 mg/kg/injection, schedule: Q01DX005 (ip), vehicle: Klucel (hydroxypropylcellulose) (HPC) 104 % of control

COc1ccc2c(c1[N+](=O)[O-])CC[C@@H]1[C@@H]2CC[C@]2(C)C(=O)CC[C@@H]12
inactive: [1] 103 % of control | [2] 105 % of control | [3] 99 % of control | [4] 86 % of control

CC(C)(C)N(C(=O)OCC1c2ccccc2-c2ccccc21)C(CO)C(=O)O (configuration not stated)
inactive: [5] 100 % of control | [6] 107 % of control

Nc1ccc(S(=O)(=O)c2ccc(Nc3ccnc4cc(Cl)ccc34)cc2)cc1
inactive: [5] 100 % of control | [6] 92 % of control | [7] 90 % of control

C[CH2][Ge]([CH2]C)[CH2]C.C[CH2][Ge]([CH2]C)[CH2]C.[CH3][Ge][CH3]
inactive: [8] 90 % of control | [9] 90 % of control | dose: 200.0 mg/kg/injection, schedule: Q01DX009 (ip), vehicle: saline 92 % of control

COC(=O)C1(CC(=O)c2ccccc2)NC(=S)NC(=O)C1C#N (configuration not stated)
inactive: [10] 103 % of control | [11] 98 % of control | [12] 98 % of control

N#C/C(=N\NC(=O)c1cccs1)c1ccccc1Cl
inactive: [2] 93 % of control | [3] 103 % of control | [4] 106 % of control

C=CCN(CC=C)CCSC(=S)NCCOC
inactive: dose: 100.0 mg/kg/injection, schedule: Q04DX003 (ip), vehicle: saline with Tween-80 100 % of control | dose: 200.0 mg/kg/injection, schedule: Q04DX003 (ip), vehicle: saline with Tween-80 95 % of control

FC(F)(F)c1nnc(-c2ccc3ccccc3c2)nn1
inactive: dose: 12.5 mg/kg/injection, schedule: Q01DX009 (ip), vehicle: Klucel (hydroxypropylcellulose) (HPC) 104 % of control | dose: 25.0 mg/kg/injection, schedule: Q01DX009 (ip), vehicle: Klucel (hydroxypropylcellulose) (HPC) 103 % of control | [13] 103 % of control and 122 % of control | [14] 105 % of control and 97 % of control | [15] 100 % of control

CCN(CC)C(=O)C(F)C(F)(F)C(F)(F)C(F)(F)C(F)(F)C(F)(F)C(F)(F)F (configuration not stated)
inactive: [13] 102 % of control | [14] 101 % of control | [15] 99 % of control

OCC1(C2CCN(Cc3ccccc3)CC2)OCCO1
inactive: dose: 25.0 mg/kg/injection, schedule: Q01DX005 (ip), vehicle: saline 101 % of control | dose: 50.0 mg/kg/injection, schedule: Q01DX005 (ip), vehicle: saline 100 % of control | dose: 100.0 mg/kg/injection, schedule: Q01DX005 (ip), vehicle: saline 101 % of control

O=C(c1ccccc1)C(c1ccccc1)n1ncc2c1CCC2 (configuration not stated)
inactive: dose: 100.0 mg/kg/injection, schedule: Q04DX003 (ip), vehicle: Klucel (hydroxypropylcellulose) (HPC) 105 % of control | dose: 200.0 mg/kg/injection, schedule: Q04DX003 (ip), vehicle: Klucel (hydroxypropylcellulose) (HPC) 100 % of control | dose: 400.0 mg/kg/injection, schedule: Q04DX003 (ip), vehicle: Klucel (hydroxypropylcellulose) (HPC) 103 % of control

CS(=O)(=O)OCC(F)(F)COS(C)(=O)=O
inactive: [2] 94 % of control | [3] 100 % of control | [4] 99 % of control

CS(C)=NS(C)(=O)=O
inactive: dose: 100.0 mg/kg/injection, schedule: Q01DX001 (ip), vehicle: saline 113 % of control | dose: 200.0 mg/kg/injection, schedule: Q01DX001 (ip), vehicle: saline 106 % of control | dose: 400.0 mg/kg/injection, schedule: Q01DX001 (ip), vehicle: saline 107 % of control

CSc1nc(COC(=O)NC(C)C)c(COC(=O)NC(C)C)n1Cc1ccccc1
inactive: dose: 12.5 mg/kg/injection, schedule: Q01DX005 (ip), vehicle: saline with Tween-80 98 % of control | [1] 101 % of control | [2] 100 % of control and 110 % of control | [3] 98 % of control and 111 % of control | [4] 116 % of control

Nc1ccccc1SCc1ccccc1
inactive: [16] 103 % of control | [17] 100 % of control | dose: 100.0 mg/kg/injection, schedule: Q01DX009 (ip), vehicle: saline with Tween-80 102 % of control | dose: 200.0 mg/kg/injection, schedule: Q01DX009 (ip), vehicle: saline with Tween-80 108 % of control

COc1ccc(/C=N\N2CN(C(CC(N)=O)C(=O)O)C(O)(CCl)N=C2N)cc1OC (configuration not stated)
inactive: dose: 60.0 mg/kg/injection, schedule: Q01DX005 (ip), vehicle: saline 95 % of control | dose: 120.0 mg/kg/injection, schedule: Q01DX005 (ip), vehicle: saline 98 % of control | dose: 240.0 mg/kg/injection, schedule: Q01DX005 (ip), vehicle: saline 98 % of control

O=C(CNO)OCc1ccccc1
inactive: dose: 25.0 mg/kg/injection, schedule: Q01DX009 (ip), vehicle: other 97 % of control | dose: 50.0 mg/kg/injection, schedule: Q01DX009 (ip), vehicle: other 106 % of control | dose: 100.0 mg/kg/injection, schedule: Q01DX009 (ip), vehicle: other 104 % of control | dose: 200.0 mg/kg/injection, schedule: Q01DX009 (ip), vehicle: other 100 % of control | dose: 400.0 mg/kg/injection, schedule: Q01DX009 (ip), vehicle: other 106 % of control

CS(C)=Nc1ccc([N+](=O)[O-])cc1
inactive: dose: 100.0 mg/kg/injection, schedule: Q01DX001 (ip), vehicle: Klucel (hydroxypropylcellulose) (HPC) 109 % of control | dose: 200.0 mg/kg/injection, schedule: Q01DX001 (ip), vehicle: Klucel (hydroxypropylcellulose) (HPC) 100 % of control

CC(O)CNC1c2ccccc2CC1O (configuration not stated)
inactive: dose: 25.0 mg/kg/injection, schedule: Q01DX009 (ip), vehicle: saline 108 % of control | [8] 100 % of control | [9] 100 % of control

Cc1nn(Cc2ccccc2)c(C)c1-c1c(C)nn(Cc2ccccc2)c1C
inactive: [5] 104 % of control | [6] 103 % of control | [7] 99 % of control

CC(O)(CCO)CCO
inactive: dose: 25.0 mg/kg/injection, schedule: Q01DX005 (ip), vehicle: water 98 % of control | dose: 50.0 mg/kg/injection, schedule: Q01DX005 (ip), vehicle: water 100 % of control | dose: 100.0 mg/kg/injection, schedule: Q01DX005 (ip), vehicle: water 98 % of control | dose: 200.0 mg/kg/injection, schedule: Q01DX005 (ip), vehicle: water 99 % of control | dose: 400.0 mg/kg/injection, schedule: Q01DX005 (ip), vehicle: water 99 % of control

OCC1OC(n2c(=S)[nH]c3ccccc32)C(O)C1O (configuration not stated)
inactive: [10] 98 % of control | [11] 98 % of control

Cn1c(C(=O)O)cc(=O)cc1C(=O)O
inactive: dose: 6.25 mg/kg/injection, schedule: Q01DX009 (ip), vehicle: saline with Tween-80 100 % of control | dose: 12.5 mg/kg/injection, schedule: Q01DX009 (ip), vehicle: saline with Tween-80 101 % of control | [16] 95 % of control | [17] 100 % of control

O=C(O)C(c1ccccc1)c1cccc(C(C(=O)O)c2ccccc2)n1 (configuration not stated)
inactive: [10] 105 % of control | [11] 100 % of control | [12] 102 % of control
